Test results from PubChem BioAssay (NCI).
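Each compound was tested at five concentrations against cells in 96-well plates for 48 hours. Here, GI50 denotes the concentration required for 50% inhibition of growth. The concentration for full growth arrest is given as TGI.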

How the values were obtained:
Assay in all cases: NCI-60 cell line screen, 48 h
SW-620 colon = test system: SW-620 colon
HOP-62 NSCLC = test system: HOP-62 NSCLC
OVCAR-8 ovarian = test system: OVCAR-8 ovarian
HOP-92 NSCLC = test system: HOP-92 NSCLC
HT29 colon = test system: HT29 colon
HCC-2998 colon = test system: HCC-2998 colon
RXF 393 renal = test system: RXF 393 renal
RPMI-8226 leukemia = test system: RPMI-8226 leukemia
UACC-62 melanoma = test system: UACC-62 melanoma
PC-3 prostate = test system: PC-3 prostate

| SMILES | GI50 (SW-620 colon) [µM] | TGI (SW-620 colon) [µM] | GI50 (HOP-62 NSCLC) [µM] | TGI (HOP-62 NSCLC) [µM] | GI50 (OVCAR-8 ovarian) [µM] | TGI (OVCAR-8 ovarian) [µM] | GI50 (HOP-92 NSCLC) [µM] | TGI (HOP-92 NSCLC) [µM] | GI50 (HT29 colon) [µM] | TGI (HT29 colon) [µM] | GI50 (HCC-2998 colon) [µM] | TGI (HCC-2998 colon) [µM] | GI50 (RXF 393 renal) [µM] | TGI (RXF 393 renal) [µM] | GI50 (RPMI-8226 leukemia) [µM] | TGI (RPMI-8226 leukemia) [µM] | GI50 (UACC-62 melanoma) [µM] | TGI (UACC-62 melanoma) [µM] | GI50 (PC-3 prostate) [µM] | TGI (PC-3 prostate) [µM] |
| --- | --- | --- | --- | --- | --- | --- | --- | --- | --- | --- | --- | --- | --- | --- | --- | --- | --- | --- | --- | --- |
| CCc1c(C#N)c(SC(C(N)=O)c2ccccc2)nc(N2CCC(N)CC2)c1C#N (stereo not given) | 15.5 | 29.6 | 15.9 | 30.6 | 15.9 | 33.7 | 4.56 | 19.2 | 14.3 | 30.7 | 14.1 | 27.1 | 10.4 | 22.7 | 13.7 | 34.4 | 15 | 28.4 | 12.9 | 26.5 |
| Cc1ccc(C(=O)N2C/C(=C/c3ccccc3)C(=O)/C(=C/c3ccccc3)C2)cc1 | 2.94 | > 59.3 | 4.96 | 61.3 | 5.09 | > 100 | 10.7 | > 100 | 2.03 | 7 | 3.08 | 8.67 | 2.2 | 6.39 | 0.131 | 0.971 | 4.49 | 25.8 | 6.08 | > 100 |
| Oc1ccc(-c2[nH]c3ccccc3c2-c2nc3ccccc3o2)cc1 | 3.04 | 13.4 | 5.01 | 18.2 | 4.57 | 20.9 | 2.73 | 15.9 | 3.65 | 11.5 | 2.66 | 7 | 4.24 | 18.9 | 14.3 | 52.3 | 3.1 | 15 | 3.35 | 18.5 |
| COc1ncc2cc1NS(=O)(=O)c1cccc(c1)C(=O)NCC1=CC=C(S1)c1ncnc3c1SC2=C3C | 0.49 | 3.31 | 0.238 | 4.1 | 0.58 | 15.5 | 0.0526 | 0.667 | 0.201 | 1.74 | 0.203 | 0.574 | 0.0721 | 0.695 | 0.202 | 0.588 | 0.248 | 1.24 | 0.0797 | 2.77 |
| Cc1ccc(O)cc1Nc1ccnc2cc(-c3ccccn3)ccc12 | 4.02 | 7.65 | 3.48 | 8.59 | 3.61 | 9.28 | 0.292 | 3.02 | 3.9 | 7.81 | 3.89 | 7.51 | 1.95 | 5.37 | 4.25 | 9.88 | 3.45 | 7.34 | 3.08 | 10.4 |
| COc1cc2c(cc1OC)C(SC)C(=O)N(Cc1cccc(OC)c1OC)CC2 (stereo not given) | – | > 100 | – | > 45.8 | – | 70.9 | – | 16.9 | – | 17.1 | – | 29.1 | – | > 48.1 | – | 47.5 | – | 30.2 | – | > 69 |
| COc1cc(OC)c(/C=C/C(=O)c2c(N)cc(OC)cc2OC)c(OC)c1 | 0.326 | > 100 | 0.724 | > 100 | 0.712 | > 100 | 17.6 | > 94.8 | 3.3 | 14.6 | 1.25 | > 54.1 | 0.623 | 4.7 | 0.815 | > 100 | 0.379 | > 100 | 1.77 | > 100 |
| C=CC(C)(O)CCC1C(=C)C(O)CC2C(C)(C)CCCC12C (stereo not given) | – | 43.5 | – | 43.6 | – | 71.4 | – | 34 | – | 33 | – | 33.2 | – | 29.5 | – | 58.2 | – | 29.8 | – | 32.2 |
| Cc1cc2c(cc1C)[n+](=O)c(C(=O)/C=C/c1ccccc1[N+](=O)[O-])c(C)n2[O-] | – | > 100 | – | > 84.1 | – | > 100 | – | 67.4 | – | > 100 | – | > 100 | – | 46.2 | – | > 100 | – | 75.3 | – | > 100 |
| CC/C(=C(/c1ccc(/C=C/C(=O)O)cc1)c1ccc2[nH]ncc2c1)c1ccc(F)cc1Cl | 12 | 28.5 | 9.98 | 26.5 | 14.2 | 37.9 | 10.1 | 24.8 | 13.3 | 32.4 | 13.8 | 29.8 | 5.31 | 16.3 | 7.72 | 41 | 5.85 | 21.8 | 7.95 | 21.6 |
| CC1(C)N=C(N)N=C(N)N1c1ccc(OCCCCNC(=O)Nc2cccc(S(=O)(=O)F)c2)c(Cl)c1 | 0.657 | > 100 | 10.6 | > 100 | 4.28 | > 100 | 27.1 | > 100 | 0.611 | > 100 | 5.22 | > 100 | 0.735 | > 100 | 3 | 93.3 | 0.491 | > 100 | 0.0995 | > 100 |
| COC(=O)C1=Nc2ccc(F)cc2/C1=C/c1sc(=S)[nH]c1O | 0.0499 | > 100 | 0.18 | 18.7 | 0.202 | 37.7 | 1.19 | 14.4 | 0.559 | 11.9 | 0.41 | 12.1 | 0.0762 | 4.1 | 0.305 | 3.92 | 0.248 | > 47 | 0.128 | 26.3 |
| CCc1ccc(C2=NN(c3ccc(S(C)(=O)=O)cc3)C(=O)CC2)cc1 | 0.56 | > 100 | 2.68 | > 30.8 | 2.87 | > 81.8 | 1.86 | 23.7 | 0.411 | 13.4 | 3.96 | 33.4 | 2.05 | 15.4 | 3.97 | > 57.6 | 0.603 | > 100 | 2.31 | > 100 |
| Nc1c(C(=O)Nc2ccccn2)sc2nc3c(cc12)CCCCCC3 | 0.389 | 22.7 | 1.55 | 11 | 2.21 | 15.8 | 1.86 | 11.4 | 0.36 | 5.67 | 1.61 | 33.1 | 0.903 | 4.07 | 0.915 | 30 | 0.376 | 10.3 | 1.54 | 12.2 |
| CCN(CC)Cc1cc(Nc2cc(C(F)(F)F)c(C#N)c3nc4ccccc4n23)ccc1O | 2.61 | 10.2 | 3.05 | 11.4 | 2.68 | 12.6 | 0.59 | 3.48 | 2.5 | 12.2 | 2.85 | 15.2 | 1.8 | 5.81 | 0.812 | 4.96 | 1.22 | 3.96 | 2.32 | 7.87 |
| O=C(Nc1nc2c(s1)CCc1c-2c(Br)n(Cc2ccccc2)c1Br)c1ccccc1 | 21.4 | > 100 | 2.13 | 6.72 | 3.91 | > 100 | 1.2 | 4.63 | 4.71 | > 100 | > 100 | > 100 | 2.01 | 7.69 | 11.4 | > 100 | 4.66 | > 100 | 4.26 | > 100 |
| O=c1c2ccccc2n2cnc3ccc(NCCNCCO)c1c32 | – | 5.11 | – | 10.9 | – | 5.02 | – | 13.1 | – | 6.84 | – | 11.3 | – | 4.65 | – | 17 | – | 7.27 | – | 6.15 |
| Cc1ccc(NC2=CC(=O)C(=O)c3ccccc32)c(C)c1 | 3.26 | 12.8 | 3.24 | 12.5 | 3.32 | 17 | 13.3 | 42.3 | 2.51 | 7.08 | 2.54 | 7.91 | 9.59 | 21.6 | 4.84 | 53.7 | 1.78 | 3.72 | 3.37 | 17.1 |
| CC1=NN(c2nc(N)nc(/C=C\c3ccccc3)n2)C(C)(C)C1 | 4.48 | 44.2 | 14.9 | 29.7 | 5.33 | 39 | 19.5 | 39.5 | 2.47 | 14 | 11.9 | 26.1 | 5.8 | 20.1 | 3.02 | 15 | 3.88 | 16.4 | 4.41 | 19.7 |
